Tests used:
AMPA receptors = assay: field EPSP amplitude in field CA1 of rat hippocampal slice; format: cell-based; details: rat hippocampal slice
Source text: The field EPSP, (excitatory post-synaptic potential) recorded in field CA1 after stimulation of CA3 axons is known to be mediated by AMPA receptors, which are present in the synapses (Kessler et al., Brain Res. 560: 337-341 (1991)). Drugs that selectively block the receptor selectively block the field EPSP (Muller et al., Science, supra). […] These effects are mirrored in the field EPSP (see, for example, Staubli et al., Psychobiology, supra; Xiao et al., Hippocampus, supra; Staubli et al., Hippocampus 2: 4958 (1992)).
To obtain the data shown in Table I, a bipolar nichrome stimulating electrode was positioned in the dendritic layer (stratum radiatum) of the hippocampal subfield CA1 close to the border of subfield CA3, as described in Example 64. Current pulses (0.1 msec) through the stimulating electrode activate a population of the Schaffer-commissural (SC) fibers, which arise from neurons in the subdivision CA3 and terminate in synapses on the dendrites of CA1 neurons. Activation of these synapses causes them to release the transmitter glutamate. Glutamate binds to post-synaptic AMPA receptors, which then transiently open an associated ion channel and permit a sodium current to enter the postsynaptic cell. This current results in a voltage in the extracellular space (the field EPSP), which is recorded by a high impedance recording electrode positioned in the middle of the stratum radiatum of CA1.
The intensity of the stimulation current was adjusted to produce half-maximal EPSPs (typically about 1.5-2.0 mV). Paired stimulation pulses were given every 40 sec with an interpulse interval of 200 msec, as described further in Example 64.
Hippocampal slices were maintained in a recording chamber continuously perfused with artificial cerebrospinal fluid (ACSF). During 15-30 minute intervals, the perfusion medium was switched to one containing various concentrations of the test compounds. Responses collected immediately before and at the end of drug perfusion were superimposed in order to calculate the percent increase in EPSP amplitude.
(§1) The physiological effects of invention compounds were tested in vitro on primary cultures of rat cortical neurons as described by Hamill, O P, et al. in Pflügers Arch 391: 85-100 (1981) or on slices of rat hippocampus according to the following procedure. Excitatory responses (field EPSPs) were measured in hippocampal slices, which were maintained in a recording chamber continuously perfused with artificial cerebrospinal fluid (ACSF). During a 15-30 minute interval, the perfusion medium was switched to one containing various concentrations of the test compounds. Responses collected immediately before and at the end of drug perfusion were superimposed in order to calculate the percent increase in EPSP amplitude.
To conduct these tests, the hippocampus was removed from anesthetized, 2 month old Sprague-Dawley rats and in vitro slices (400 μm thick) were prepared and maintained in an interface chamber at 35° C. using conventional techniques [see, for example, Dunwiddie and Lynch, J. Physiol. 276: 353-367 (1978)]. The chamber was constantly perfused at 0.5 mL/min with ACSF containing (in mM): NaCl 124, KCl 3, KH2PO4 1.25, MgSO4 2.5, CaCl2 3.4, NaHCO3 26, glucose 10 and L-ascorbate 2. A bipolar nichrome stimulating electrode was positioned in the dendritic layer (stratum radiatum) of the hippocampal subfield CA1 close to the border of subfield CA3.
Current pulses (0.1 msec) through the stimulating electrode activate a population of the Schaffer-commissural (SC) fibers, which arise from neurons in the subdivision CA3 and terminate in synapses on the dendrites of CA1 neurons. Activation of these synapses causes them to release the transmitter glutamate. Glutamate binds to the post-synaptic AMPA receptors, which then transiently open an associated ion channel and permit a sodium current to enter the postsynaptic cell. […]

AMPA receptor = assay: steady-state current induced by glutamate in cortical neurons in primary culture; format: cell-based, rat; details: 300 μM glutamate on cultured neurons
Experimental: as §1

Row | SMILES | melting point | AMP: concentration of modulator that increases the amplitude of the fEPSP by 10% (AMPA receptors) [µM] | EC2X: concentration of modulator required to double the steady state current (AMPA receptor) [µM]
1 | O=C(c1ccc2c(c1)OC1CCCN1C2=O)N1CCCCC1 (racemic) [Example 5, (R,S)-6-(Piperidylcarbonyl)-3aH-benzo[e]pyrrolidino[2,1-b]1,3-oxazaperhydroin-9-one] |  | 10 | 2
2 | O=C1c2cc3nc4n(c(=O)c3cc2OC2CCCN12)CCC4 (racemic) [Example 6, (R,S)-6a-hydro-3aH-pyrrolidino[2,1-b]pyrrolidino[2′,1′-2,3]quinazolino[7,6-e]1,3-oxazaperhydroine-6,12-dione] |  | 100 | 1.4
3 | CC1CCN(C(=O)c2ccc3c(c2)OC2CCCN2C3=O)CC1 (racemic) [Example 18, (R,S)-6-[(4-methylpiperidyl)carbonyl]-3aH-benzo[e]pyrrolidino[2,1-b]1,3-oxazin-9-one] |  | 100 | 4
4 | CN1COc2cc3c(cc2C1=O)OC1CCCN1C3=O (racemic) [Example 22, (R,S)-3-methyl-2H,6aH-pyrrolidino[2″,1″-3′,2′]1,3-oxazino[5′,6′-4,5]benzo[e]1,3-oxazaperhydroine-4,10-dione] | 195 to 196 °C | 10 | 0.2
5 | O=C1c2cc3c(cc2OCN1Cc1ccc2c(c1)OCO2)C(=O)N1CCCC1O3 (racemic) [Example 28, (R,S)-3-(2H-benzo[d]1,3-dioxolen-5-ylmethyl)-2H,6aH-pyrrolidino[2″,1″-3′,2′]1,3-oxazino[5′,6′-4,5]benzo[e]1,3-oxazaperhydroine-4,10-dione] |  | 10 | 6
6 | O=C1NCOc2cc3c(cc21)OC1CCCN1C3=O (racemic) [Example 58, (R,S)-2H,3H,6aH-pyrrolidino[2″,1″-3′,2′]1,3-oxazino[5′,6′-4,5]benzo[e]1,3-oxazaperhydroine-4,10-dione] | 270 to 275 °C (dec.) |  | 
7 | O=C1c2cc3c(cc2OC2CCCN12)OC1CCCN1C3=O [Example 2, (R,S), (R,S)-3aH,6aH-pyrrolidino[2,1-b]pyrrolidino[2″,1″-3′,2′](1,3-oxazino)[6′,5′-2,1]benzo[4,5-e]1,3-oxazaperhydroine-10,12-dione] |  | >10 | 2.6
8 | O=C1c2cc3c(cc2OC2CCCN12)C(=O)N1CCOC1O3 [Example 11, (R,S), (R,S)-2H,3H,12aH,6aH-1,3-oxazolidino[2,3-b]pyrrolidino[2″,1″-2′,3′](1,3-oxazino)[5′,6′-2,1]benzo[4,5-e]1,3-oxazaperhydroine-4,10-dione] |  | 1 | 0.09
9 | CCN1COc2cc(C(=O)C3CCCCC3)ccc2C1=O [Example 38, 7-(cyclohexylcarbonyl)-3-ethyl-2H-benzo[e]1,3-oxazaperhydroin-4-one] |  | 30 | 15
10 | O=C1c2cc3c(cc2OC2CCCN12)C(=O)N1OCCC1O3 [Example 46, (R,S), (R,S)-2H,3H,3aH,9aH--1,2-oxazolidino[3,2-b]pyrrolidino[2″,1″-3′,2′](1,3-oxazino)[5′,6′-5,4]benzo[e]1,3-oxazaperhydroine-6,12-dione] |  | 3 | 2.4

More lines, main results first:

Row | melting point | SMILES | AMP: concentration of modulator that increases the amplitude of the fEPSP by 10% (AMPA receptors) [µM] | EC2X: concentration of modulator required to double the steady state current (AMPA receptor) [µM]
11 | 197 to 198 °C | CCN1COc2cc3c(cc2C1=O)OC1CCCN1C3=O (racemic) [Example 23, (R,S)-3-ethyl-2H,6aH-pyrrolidino[2″,1″-3′,2′]1,3-oxazino[5′,6′-4,5]benzo[e]1,3-oxazaperhydroine-4,10-dione] |  | 
12 | 153 to 154 °C | CCCN1COc2cc3c(cc2C1=O)OC1CCCN1C3=O (racemic) [Example 24, (R,S)-3-propyl-2H,6aH-pyrrolidino[2″,1″-3′,2′]1,3-oxazino[5′,6′-4,5]benzo[e]1,3-oxazaperhydroine-4,10-dione] |  | 
13 | 204 to 205 °C | CC(C)N1COc2cc3c(cc2C1=O)OC1CCCN1C3=O (racemic) [Example 25, (R,S)-3-(methylethyl)-2H,6aH-pyrrolidino[2″,1″-3′,2′]1,3-oxazino[5′,6′-4,5]benzo[e]1,3-oxazaperhydroine-4,10-dione] |  | 
14 | 184 to 188 °C | O=C1c2cc3c(cc2OCN1C1CCCC1)C(=O)N1CCCC1O3 (racemic) [Example 26, (R,S)-3-cyclopentyl-2H,6aH-pyrrolidino[2″,1″-3′,2′]1,3-oxazino[5′,6′-4,5]benzo[e]1,3-oxazaperhydroine-4,10-dione] |  | 
15 | 189 to 190 °C | O=C1CCCN1CCCN1COc2cc3c(cc2C1=O)OC1CCCN1C3=O (racemic) [Example 27, (R,S)-3-[3-(2-oxopyrrolidinyl)propyl]-2H,6aH-pyrrolidino[2″,1″-3′,2′]1,3-oxazino[5′,6′-4,5]benzo[e]1,3-oxazaperhydroine-4,10-dione] | 10 | 1
16 | 179 to 180 °C | O=C1c2cc3c(cc2OCN1CC(F)(F)F)C(=O)N1CCCC1O3 (racemic) [Example 29, (R,S)-3-(2,2,2-trifluoroethyl)-2H,6aH-pyrrolidino[2″,1″-3′,2′]1,3-oxazino[5′,6′-4,5]benzo[e]1,3-oxazaperhydroine-4,10-dione] |  | 
17 | 153 to 155 °C | O=C1c2cc3c(cc2OCN1CCCN1CCOCC1)C(=O)N1CCCC1O3 (racemic) [Example 32, (R,S)-3-(3-morpholin-4-ylpropyl)-2H,6aH-pyrrolidino [2″,1″-3′,2′]1,3-oxazino[5′,6′-4,5]benzo[e]1,3-oxazaperhydroine-4,10-dione] |  | 
18 | 161 to 162 °C | COC(=O)CN1COc2cc3c(cc2C1=O)OC1CCCN1C3=O (racemic) [Example 33, (R,S)-methyl 2-(4,10-dioxo-2H,6aH-pyrrolidino[2″,1″-3′,2′]1,3-oxazino[5′,6′-4,5]benzo[e]1,3-oxazaperhydroin-3-yl)acetate] |  | 
19 | 257 to 259 °C | O=C(CN1COc2cc3c(cc2C1=O)OC1CCCN1C3=O)N1CCCC1 (racemic) [Example 34, (R,S)-3-(2-oxo-2-pyrrolidinylethyl)-2H,6aH-pyrrolidin[2″,1″-3′,2′]1,3-oxazino[5′,6′-4,5]benzo[e]1,3-oxazaperhydroine-4,10-dione] |  | 
20 | 189 to 190 °C | O=C1c2cc3c(cc2OCC1CO)C(=O)N1CCCC1O3 [Example 20, (R,S),(R,S)-3-(hydroxymethyl)-6aH-chromano[7,6-e]pyrrolidino[2,1-b]1,3-oxazine-4,10-dione] |  | 
21 | 237 to 238 °C | O=C1c2cc3c(cc2OCN1CCO)C(=O)N(CCO)CO3 [Example 59, 3,8-bis(2-hydroxyethyl)-2H,7H-1,3-oxazaperhydroino[5′,6′-4,5]benzo[e]1,3-oxazine-4,9-dione] |  | 
